# Key:
# A2780 = assay: In vitro cytotoxicity, IC50 by flow cytometry (Guava ViaCount); type: cell-based, human
# Procedure: (§1) Human cancer cell line HeLa, HL60, A2780 was obtained from the HPA Culture Collections (Salisbury, UK). Cells (Jurkat, K562, U937, Hek293, Fibroblasts) were purchased from Russian Cell Culture Collection (Institute of Cytology of the Russian Academy of Sciences, […], Russia) and cultured according to standard protocols and sterile technique. […] Cells were maintained in RPMI 1640 (Jurkat, K562, U937, HL60) (Gibco, Billings, MT, USA) supplemented with […], 10% FBS (Sigma) and 100 units/mL penicillin–streptomycin (Sigma). All types of cells were grown in an atmosphere of 5% CO2 at 37 °C. The cells were subcultured at 2–3 days intervals. Cells were then seeded in 24-well plates at 5 × 10^4 cells per well and incubated overnight. Jurkat, K562, U937, HL60 cells were subcultured at 2-day intervals with a seeding density of 1 × 10^5 cells per 24-well plates in RPMI with 10% FBS.
# (§2) The antitumor activity of the synthesized ionic compounds was initially assessed in vitro on Jurkat, K562, U937, HL60, HEK293, A2780 cell lines, including the determination of IC50 by flow cytometry involving Guava ViaCount (Millipore) reagent kits.
# HL60 = assay: as above; type: cell-based, human
# Procedure: as §1, §2
# HEK293 = assay: as above; type: cell-based; conditions: conditionally normal
# Procedure: as §1, §2
# Jurkat = assay: as above; type: cell-based; conditions: Jurkat cells
# Procedure: as §1, §2
# K562 = assay: as above; type: cell-based
# Procedure: as §1, §2
# U937 = assay: as above; type: cell-based
# Procedure: as §1, §2
# Jurkat cells = assay: Apoptosis/necrosis induction (Annexin V Alexa Fluor488, 7AAD staining); type: cell-based; conditions: compound at IC50 concentration, incubation 2 h
# Description: Multiparametric evaluation of marker molecules, along with the detection of damage to the mitochondrial membrane, makes it possible to clearly determine the type of cell death. The method of cell staining with three different dyes (Annexin V Alexa Fluor488, 7AAD and MitoSense Red) provides simultaneous specification of various aspects of the state of the cell membrane, the state of DNA and the viability of mitochondria; together, it is a reliable sign of intrinsic and mitochondrial apoptosis pathway. Normal cells with intact mitochondrial membranes have high MitoSense Red fluorescence, while cells with decoupled oxidation and phosphorylation have much lower fluorescence. […]
# Figure 1 The ratio of the level of mito-damage and the level of apoptosis in Jurkat cells of ionic compounds based on ursolic, oleanolic and betulinic acids.
# [1] = test system: mitochondria of Jurkat tumor cells; assay: Mitochondrial damage (MitoSense Red staining); type: cell-based; conditions: compound at IC50 concentration, incubation 2 h
# [2] = Homo sapiens, A2780, A2780 cells
# [3] = Homo sapiens, HL-60, HL60 cells
# [4] = Homo sapiens, HEK293, HEK293 cells
# [5] = Homo sapiens, U-937, U937 cells
Compound,IC50 (A2780; A2780 cells) [nM],IC50 (HL60; HL60 cells) [nM],IC50 (HEK293; HEK293 cells) [nM],IC50 (Jurkat) [nM],IC50 (K562; K562 cells) [nM],IC50 (U937; U937 cells) [nM],Apoptosis (%) Early (Jurkat cells) [%],Apoptosis (%) Late (Jurkat cells) [%],Apoptosis (%) Necrosis (Jurkat cells) [%],Mito-Damage (%) [1] [%],IC50 (A2780; [2]) [nM],IC50 (HL60; [3]) [nM],IC50 (HEK293; [4]) [nM],"IC50 (Jurkat; Homo sapiens, Jurkat) [nM]","IC50 (K562; Homo sapiens, K562, K562 cells) [nM]",IC50 (U937; [5]) [nM]
1-Benzyl-3-methylimidazolium (3β)-3-hydroxyolup-20(29)-en28-oylate [17d],87 ± 9,19 ± 2,189 ± 16,16 ± 1,44 ± 2,40 ± 2,4.82,1.44,2.11,9.69,–,–,–,–,–,–
1-Benzyl-3-methylimidazolium (3β)-3-hydroxyours-12-en-28-oylate [16d],27 ± 2,5 ± 1,56 ± 4,11 ± 1,12 ± 1,11 ± 1,–,–,–,–,–,–,–,–,–,–
1-Butyl-3-methylimidazolium (3β)-3-hydroxyolean-12-en-28-oylate [15b],79 ± 7,17 ± 2,167 ± 16,19 ± 1,41 ± 2,38 ± 2,–,–,–,–,–,–,–,–,–,–
1-Butyl-3-methylimidazolium (3β)-3-hydroxyolup-20(29)-en28-oylate [17b],74 ± 6,15 ± 1,159 ± 14,14 ± 1,39 ± 3,32 ± 3,6.45,3.38,1.92,17.39,–,–,–,–,–,–
1-Butyl-3-methylimidazolium (3β)-3-hydroxyours-12-en-28-oylate [16b],396 ± 35,89 ± 8,935 ± 94,97 ± 6,336 ± 16,299 ± 14,–,–,–,–,–,–,–,–,–,–
1-Hexyl-3-methylimidazolium (3β)-3-hydroxyolean-12-en-28-oylate [15c],157 ± 18,39 ± 4,392 ± 38,43 ± 2,80 ± 4,69 ± 3,–,–,–,–,–,–,–,–,–,–
1-Hexyl-3-methylimidazolium (3β)-3-hydroxyolean-12-en-28-oylate [15d],231 ± 22,69 ± 7,581 ± 47,107 ± 6,159 ± 8,143 ± 7,–,–,–,–,–,–,–,–,–,–
1-Hexyl-3-methylimidazolium (3β)-3-hydroxyolup-20(29)-en28-oylate [17c],113 ± 10,26 ± 3,293 ± 31,29 ± 2,56 ± 3,54 ± 3,3.97,1.70,2.82,8.71,–,–,–,–,–,–
1-Hexyl-3-methylimidazolium (3β)-3-hydroxyours-12-en-28-oylate [16c],39 ± 4,7 ± 1,81 ± 8,7 ± 1,16 ± 1,14 ± 1,–,–,–,–,–,–,–,–,–,–
"C[n+]1ccn(CCOC(=O)[C@]23CCC(C)(C)CC2C2=CCC4[C@@]5(C)CC[C@H](O)C(C)(C)C5CC[C@@]4(C)[C@]2(C)CC3)c1 (stereo partly drawn) [9a, 1-(2-{[(3β)-3-Hydroxyolean-12-en-28-oyl]oxy}ethyl)-3-methylimidazolium Bromide]",–,–,–,–,–,–,1.72,2.79,1.96,5.07,132 ± 11,24 ± 2,259 ± 24,37 ± 2,78 ± 4,69 ± 4
"C[n+]1ccn(CCCCOC(=O)[C@]23CCC(C)(C)CC2C2=CCC4[C@@]5(C)CC[C@H](O)C(C)(C)C5CC[C@@]4(C)[C@]2(C)CC3)c1 (stereo partly drawn) [9b, 1-(4-{[(3β)-3-Hydroxyolean-12-en-28-oyl]oxy}butyl)-3-methylimidazolium bromide]",–,–,–,–,–,–,–,–,–,–,257 ± 24,46 ± 4,449 ± 41,29 ± 2,149 ± 7,135 ± 7
"C[n+]1ccn(CCCCCCOC(=O)[C@]23CCC(C)(C)CC2C2=CCC4[C@@]5(C)CC[C@H](O)C(C)(C)C5CC[C@@]4(C)[C@]2(C)CC3)c1 (stereo partly drawn) [9c, 1-(6-{[(3β)-3-Hydroxyolean-12-en-28-oyl]oxy}hexyl)-3-methylimidazolium bromide]",234 ± 21,31 ± 3,318 ± 29,26 ± 1,133 ± 6,119 ± 5,–,–,–,–,–,–,–,–,–,–
"C[C@@H]1CC[C@]2(C(=O)OCCn3cc[n+](C)c3)CC[C@]3(C)C(=CCC4[C@@]5(C)CC[C@H](O)C(C)(C)C5CC[C@]43C)C2[C@H]1C (stereo partly drawn) [10a, 1-(2-{[(3β)-3-Hydroxyurs-12-en-28-oyl]oxy}ethyl)-3-methylimidazolium bromide]",–,–,–,–,–,–,10.43,5.01,0.71,11.01,59 ± 5,8 ± 1,91 ± 9,17 ± 1,31 ± 2,27 ± 2
"C[n+]1ccn(CCCCCCOC(=O)[C@]23CCC(C)(C)CC2C2=CCC4[C@@]5(C)CC[C@H](O)C(C)(C)C5CC[C@@]4(C)[C@]2(C)CC3)c1 (stereo partly drawn) [13a, 1-(6-{[(3β)-3-Hydroxyolean-12-en-28-oyl]oxy}hexyl)-3-methylimidazolium Tetrafluoroborate]",18 ± 2,2 ± 1,24 ± 2,3 ± 1,6 ± 1,5 ± 1,–,–,–,–,–,–,–,–,–,–
"C[C@H](O)C(=O)[O-].C[n+]1ccn(CCCCCCOC(=O)[C@]23CCC(C)(C)CC2C2=CCC4[C@@]5(C)CC[C@H](O)C(C)(C)C5CC[C@@]4(C)[C@]2(C)CC3)c1 (stereo partly drawn) [13g, 1-(6-{[(3β)-3-Hydroxyolean-12-en-28-oyl]oxy}hexyl)-3-methylimidazolium L-lactate]",13 ± 1,2 ± 1,26 ± 2,7 ± 1,14 ± 1,13 ± 1,–,–,–,97.4,–,–,–,–,–,–
"CC1(C)CCC2(C(=O)[O-])CCC3(C)C(=CCC4C5(C)CCC(O)C(C)(C)C5CCC43C)C2C1.CC[n+]1ccn(C)c1 (stereo not drawn) [15a, 1-Ethyl-3-methylimidazolium (3β)-3-hydroxyolean-12-en-28-oylate]",162 ± 12,34 ± 3,359 ± 31,47 ± 3,88 ± 5,79 ± 5,–,–,–,–,–,–,–,–,–,–
"CCn1cc[n+](C)c1.C[C@H]1[C@H](C)CC[C@]2(C(=O)[O-])CC[C@]3(C)C(=CC[C@@H]4[C@@]5(C)CC[C@H](O)C(C)(C)[C@@H]5CC[C@]43C)[C@H]12 [16a, 1-Ethyl-3-methylimidazolium (3β)-3-hydroxyours-12-en-28-oylate]",88 ± 7,18 ± 2,178 ± 18,33 ± 2,36 ± 2,34 ± 2,–,–,–,–,–,–,–,–,–,–

# Reference: PMC9913425, “Pentacyclic Triterpenoids-Based Ionic Compounds: Synthesis, Study of Structure–Antitumor Activity Relationship, Effects on Mitochondria and Activation of Signaling Pathways of Proliferation, Genome Reparation and Early Apoptosis” (Cancers, 2023)
